Reference: PMC9569995, “Study of Biological Activities and ADMET-Related Properties of Salicylanilide-Based Peptidomimetics” (International Journal of Molecular Sciences, 2022)
Values after ≈ are worked out from the molar mass of the structure shown. Where two headings read alike, the source gives them in different places.

Tests used:
S. aureus ATCC 29123 = test: Crystal violet uptake (membrane permeability); settings: 4× MIC, 1 h; compared to growth control and 1% Tween 20
[1] = system: methicillin-resistant S. aureus 63718; test: In vitro antibacterial evaluation, MIC by microtitration broth method; settings: Staphylococcus aureus
[2] = Lipophilicity determination by HPLC; assay type: physicochemical; settings: for log D6.5: HPLC C18, MeOH 72%/acetate-buffered saline pH 6.5 28%; for log D7.4: HPLC C18, MeOH 72%/acetate-buffered saline pH 7.4 28%; for log k: logarithm of capacity factor, HPLC C18, MeOH 72%/H2O 28%
Description: . A chromatographic column Symmetry® C18 5 μm, 4.6 × 250 mm, Part No. W21751W016 (Waters Corp, Milford, MA, USA) was used. The HPLC separation process was monitored by ChemStation for LC 3D systems (Agilent Technologies). Isocratic elution by a mixture of MeOH (HPLC grade, 72%) and H2O-HPLC Mili-Q grade (28%) as a mobile phase was used for the determination of capacity factor k. Isocratic elution by a mixture of MeOH (HPLC grade, 72%) and acetate-buffered saline (pH 7.4 and pH 6.5) (28%) as a mobile phase was used for the determination of distribution coefficient expressed as D7.4 and D6.5. The total flow of the column was 1.0 mL/min, injection was 20 μL, column temperature was 40 °C, and sample temperature was 10 °C. The detection wavelength of 210 nm was chosen. A KI methanolic solution was used for the determination of the dead times (tD). Retention times (tR) were measured in minutes. The capacity factors k were calculated according to the formula k = (tR − tD)/tD, where tR is the retention time of the solute, and tD is the dead time obtained using an unretained analyte. The distribution coefficients DpH were calculated according to the formula DpH = (tR − tD)/tD. Each experiment was repeated three times.

[3] = system: Staphylococcus aureus ATCC 29213; test: In vitro antibacterial evaluation, MIC by microtitration broth method
[4] = system: methicillin-resistant S. aureus 63718; test: Determination of minimum bactericidal concentrations (agar aliquot subculture); settings: Staphylococcus aureus
[5] = system: methicillin-resistant S. aureus SA 630; test: In vitro antibacterial evaluation, MIC by microtitration broth method; settings: Staphylococcus aureus
[6] = system: vancomycin-resistant E. faecalis VRE 368; test: as above; settings: Enterococcus faecalis
[7] = system: Enterococcus faecalis ATCC 29212; test: as above
[8] = system: methicillin-resistant S. aureus SA 3202; test: as above; settings: Staphylococcus aureus
[9] = system: methicillin-resistant S. aureus SA 630; test: Determination of minimum bactericidal concentrations (agar aliquot subculture); settings: Staphylococcus aureus
[10] = system: vancomycin-resistant E. faecalis VRE 342B; test: In vitro antibacterial evaluation, MIC by microtitration broth method; settings: Enterococcus faecalis
M. smegmatis ATCC 700084 = test: In vitro antimycobacterial evaluation, MIC (broth dilution micro-method); assay type: cell-based, Mycobacterium smegmatis; settings: Mycolicibacterium smegmatis
Description: For M. smegmatis, the broth dilution micro-method in Middlebrook 7H9 medium (Difco) supplemented with ADC Enrichment (Difco) was used. […] Bacterial inocula were prepared by transferring colonies from culture to sterile water. The cell density was adjusted to 0.5 McFarland units using a densitometer (Densi-La-Meter, LIAP, Riga, Latvia). The final inoculum was made by 1:1000 dilution of the suspension with sterile water. Drug-free controls, sterility controls, and controls consisting of medium and DMSO alone were included. The determination of results was performed visually after three days of static incubation in the darkness at 37 °C in an aerobic atmosphere.

[11] = system: human monocytic leukemia cell line THP-1; test: In vitro cell viability analysis (CCK-8); assay type: cell-based; settings: ± SD, n = 6, medium with 10% FBS, 24 h
Description: Human monocytic leukemia THP-1 cells obtained from the European Collection of Cell Cultures (ECACC, Salisbury, UK) were used for in vitro antiproliferative assays. They were routinely cultured in Roswell Park Memorial Institute RPMI 1640 medium supplemented with 10% fetal bovine serum (FBS), 2% L-glutamine, 1% penicillin, and streptomycin (all from Sigma-Aldrich) at 37 °C with 5% CO2. The cells were incubated in a complete medium (i.e., containing FBS) with test compounds at 37 °C with 5% CO2 for 24 h, similarly as we described previously. The effect of the test compounds dissolved in DMSO on cell viability was determined using a Cell Counting Kit-8 (CCK-8; Sigma) according to the manufacturer’s instructions.

[12] = system: methicillin-resistant S. aureus SA 3202; test: Determination of minimum bactericidal concentrations (agar aliquot subculture); settings: Staphylococcus aureus
[13] = system: Staphylococcus aureus ATCC 29213; test: as above; settings: ATCC29213
S. aureus ATCC 29213 = test: MTT assay of bacterial viability (respiration); settings: for Conc.: lowest multiple of MBC with at least 70% inhibition of S. aureus viability / Conc.: lowest multiple of MIC with at least 70% inhibition of S. aureus viability: MTT, 24 h
[14] = system: Mycobacterium tuberculosis H37Ra/ATCC 25177; test: In vitro antimycobacterial evaluation, MIC (alamarBlue); settings: MT
[15] = system: vancomycin-resistant E. faecalis VRE 725B; test: In vitro antibacterial evaluation, MIC by microtitration broth method; settings: Enterococcus faecalis
[16] = ATCC700084, 72 h, MS, three days, 37 °C, read-out: MIC

Row | SMILES | MIC ([1]; 24 h) | log D6.5 [2] | log D7.4 [2] | log k [2] | MIC ([3]; ATCC29213, 24 h) | MBC [4] [µM] | MIC ([5]; 24 h) | MIC ([6]; 24 h) | MIC ([7]; ATCC29212, 24 h) | MIC ([8]; 24 h) | MBC [9] [µM] | MIC ([10]; 24 h) | MIC (M. smegmatis ATCC 700084; [16]) [µg/mL] | IC50 [11] [µM] | MBC [12] [µM] | MBC [13] [µM] | MIC ([14]; 14 days, 37 °C) | MIC ([15]; 24 h) | MIC [1] [µg/mL] | MIC ([3]; ATCC29213) [µg/mL] | also measured
1 | O=C(N[C@@H](Cc1ccccc1)C(=O)Nc1ccc(C(F)(F)F)cc1)c1cc(Cl)ccc1O [3h] | 0.27 µM | 1.148 | 1.043 | 1.192 | 1.08 µM | 0.27 (≈ 0.125 µg/mL) | 1.08 µM | 277 µM | 277 µM | 2.16 µM | 2.16 (≈ 1 µg/mL) | 277 µM | > 256 | 3.3 ± 1 | 2.16 (≈ 1 µg/mL) | 2.16 (≈ 1 µg/mL) | n.a. n.d. (n.a. = no activity (MIC > 256 µg/mL)) | 277 µM | – | – | effect on plasma membrane permeability (crystal violet uptake) (S. aureus ATCC 29123): did not affect plasma membrane permeability; Conc.: lowest multiple of MBC with at least 70% inhibition of S. aureus viability (S. aureus ATCC 29213): 2× MIC (2× MBC); Conc.: lowest multiple of MIC with at least 70% inhibition of S. aureus viability (S. aureus ATCC 29213): 2× MIC (2× MBC); S. aureus Viability Inhibition (S. aureus ATCC 29213; at 2× MIC (2× MBC)): 94%
2 | CCCC[C@H](NC(=O)c1cc(Cl)ccc1O)C(=O)Nc1ccc(C(F)(F)F)cc1 [3d, 5-Chloro-2-hydroxy-N-[(2S)-1-oxo-1-{[4-(trifluoromethyl)phenyl]amino}hexan-2-yl]benzamide] | 4.66 µM | 1.247 | 1.213 | 1.322 | 0.583 µM | 4.66 (≈ 2 µg/mL) | 2.33 µM | > 256 µg/mL | > 256 µg/mL | 2.33 µM | 4.66 (≈ 2 µg/mL) | > 256 µg/mL | > 256 | 4.5 ± 1.2 | 2.33 (≈ 0.999 µg/mL) | 1.17 (≈ 0.502 µg/mL) | n.a. n.d. (n.a. = no activity (MIC > 256 µg/mL)) | > 256 µg/mL | – | – | –
3 | O=C(N[C@@H](CC1CCCCC1)C(=O)Nc1ccc(C(F)(F)F)cc1)c1cc(Cl)ccc1O [3g, 5-Chloro-N-[(2S)-3-cyclohexyl-1-oxo-1-{[4-(trifluoromethyl)phenyl]amino}propan-2-yl]-2-hydroxybenzamide] | 2.13 µM | 1.615 | 1.576 | 1.679 | 1.07 µM | 2.13 (≈ 0.999 µg/mL) | 1.07 µM | 546 µM | 546 µM | 1.07 µM | 2.13 (≈ 0.999 µg/mL) | 546 µM | > 256 | 1.4 ± 1.1 | 1.07 (≈ 0.502 µg/mL) | 1.07 (≈ 0.502 µg/mL) | n.a. n.d. (n.a. = no activity (MIC > 256 µg/mL)) | 546 µM | – | – | effect on plasma membrane permeability (crystal violet uptake) (S. aureus ATCC 29123): did not affect plasma membrane permeability; averaged lipophilicity value of log k/log D6.5/log D7.4 ([2]; average of the three experimental descriptors): 1.62 ± 0.05; Conc.: lowest multiple of MBC with at least 70% inhibition of S. aureus viability (S. aureus ATCC 29213): 0.5× MIC (0.5× MBC); Conc.: lowest multiple of MIC with at least 70% inhibition of S. aureus viability (S. aureus ATCC 29213): 0.5× MIC (0.5× MBC); S. aureus Viability Inhibition (S. aureus ATCC 29213; at 0.5× MIC (0.5× MBC)): 95.2%; viability of bacterial cells (S. aureus ATCC 29213; at their MIC value or below): less than 70%
4 | O=C(N[C@@H](Cc1ccccc1)C(=O)N[C@@H](Cc1ccccc1)C(=O)Nc1ccc(C(F)(F)F)cc1)c1cc(Cl)ccc1O [6c] | > 256 µg/mL | 1.548 | 1.495 | 1.587 | > 256 µg/mL | – | > 256 µg/mL | > 256 µg/mL | > 256 µg/mL | > 256 µg/mL | – | > 256 µg/mL | > 256 | 1.3 ± 1.1 | – | – | n.a. n.d. (n.a. = no activity (MIC > 256 µg/mL)) | > 256 µg/mL | – | – | –
5 | CC(C)C[C@H](NC(=O)c1cc(Cl)ccc1OCc1ccccc1)C(=O)N[C@@H](Cc1ccccc1)C(=O)Nc1ccc(C(F)(F)F)cc1 [5a] | – | 1.998 | 2.031 | 2.053 | – | – | – | – | – | – | – | – | – | > 10 | – | – | – | – | > 256 | > 256 | MIC [5]: > 256 µg/mL; MIC [6]: > 256 µg/mL; MIC ([7]; ATCC29212): > 256 µg/mL; MIC [8]: > 256 µg/mL; MIC [10]: > 256 µg/mL; MIC (M. smegmatis ATCC 700084; ATCC700084): > 256 µg/mL; MIC ([14]; Table S2): > 256 µg/mL; MIC [15]: > 256 µg/mL
6 | O=C(N[C@@H](Cc1ccccc1)C(=O)N[C@@H](Cc1ccccc1)C(=O)Nc1ccc(C(F)(F)F)cc1)c1cc(Cl)ccc1OCc1ccccc1 [5c] | – | 2.062 | 2.096 | 2.119 | – | – | – | – | – | – | – | – | – | > 10 | – | – | – | – | > 256 | > 256 | MIC [5]: > 256 µg/mL; MIC [6]: > 256 µg/mL; MIC ([7]; ATCC29212): > 256 µg/mL; MIC [8]: > 256 µg/mL; MIC [10]: > 256 µg/mL; MIC (M. smegmatis ATCC 700084; ATCC700084): > 256 µg/mL; MIC ([14]; Table S2): > 256 µg/mL; MIC [15]: > 256 µg/mL
7 | CC(C)C[C@H](NC(=O)[C@H](Cc1ccccc1)NC(=O)c1cc(Cl)ccc1O)C(=O)Nc1ccc(C(F)(F)F)cc1 [6b] | 444 µM | 1.528 | 1.453 | 1.547 | 55.6 µM | – | 55.6 µM | > 256 µg/mL | > 256 µg/mL | 55.6 µM | 444 (≈ 256 µg/mL) | > 256 µg/mL | > 256 | 1.6 ± 1 | – | 112 (≈ 64.5 µg/mL) | n.a. n.d. (n.a. = no activity (MIC > 256 µg/mL)) | > 256 µg/mL | – | – | –
8 | CCCC[C@H](NC(=O)c1cc(Cl)ccc1OCc1ccccc1)C(=O)Nc1ccc(C(F)(F)F)cc1 [2d, 2-(Benzyloxy)-5-chloro-N-[(2S)-1-oxo-1-{[4-(trifluoromethyl)phenyl]amino}hexan-2-yl]benzamide] | – | 1.954 | 1.902 | 1.898 | – | – | – | – | – | – | – | – | – | > 10 | – | – | – | – | > 256 | > 256 | MIC [5]: > 256 µg/mL; MIC [6]: > 256 µg/mL; MIC ([7]; ATCC29212): > 256 µg/mL; MIC [8]: > 256 µg/mL; MIC [10]: > 256 µg/mL; MIC (M. smegmatis ATCC 700084; ATCC700084): > 256 µg/mL; MIC ([14]; Table S2): > 256 µg/mL; MIC [15]: > 256 µg/mL
